According to ChEMBL document CHEMBL5096243, “Selective TASK-1 Inhibitor with a Defined Structure-Activity Relationship Reduces Cancer Cell Proliferation and Viability” (J Med Chem, 2022):
The source made the active and inactive calls. The calls are words filed in the database; no cut-off is given here.

Assays:
[1] = molecular target: T1, Potassium channel subfamily K member 3 (Homo sapiens, UniProt O14649); test: Inhibition of human TASK-1 expressed in Xenopus laevis oocytes assessed as inhibition of channel current at +40mV holding potential by two-electrode voltage clamp assay; assay type: cell-based, Oocyte
Target sequence in this assay (O14649 whole entry): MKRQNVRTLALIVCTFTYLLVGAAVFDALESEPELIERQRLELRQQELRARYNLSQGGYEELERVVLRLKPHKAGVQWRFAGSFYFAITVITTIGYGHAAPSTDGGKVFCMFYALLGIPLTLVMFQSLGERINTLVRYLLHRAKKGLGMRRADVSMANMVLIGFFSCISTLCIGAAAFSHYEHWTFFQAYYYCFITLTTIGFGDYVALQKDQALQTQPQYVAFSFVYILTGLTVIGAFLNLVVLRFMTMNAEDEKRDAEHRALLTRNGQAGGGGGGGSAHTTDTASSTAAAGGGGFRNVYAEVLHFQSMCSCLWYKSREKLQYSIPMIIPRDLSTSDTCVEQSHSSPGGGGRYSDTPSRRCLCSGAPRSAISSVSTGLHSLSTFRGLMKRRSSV

[2] = molecular target: T1, Potassium channel subfamily K member 3; test: Inhibition of human TASK-1 expressed in Xenopus laevis oocytes assessed as inhibition of channel current at 10 uM at +40mV holding potential by two-electrode voltage clamp assay; assay type: cell-based; conditions: Oocyte
Target sequence in this assay (O14649 whole entry, looked up): as the sequence (O14649 whole entry) above

MCF7 [3] = test: Antiproliferative activity against human MCF7 cells assessed as inhibition of cell proliferation at 10 uM incubated for 4 days by MTT assay; assay type: functional; set-up: scale not given: the % may be the effect or the level left; conditions: time 4 day
MCF7 [4] = test: Antiproliferative activity against human MCF7 cells with shBP3 induced TASK-1 knockdown assessed as inhibition of cell proliferation at 0.148 uM incubated for 24 to 72 hrs by trypan blue exclusion method; assay type: functional, cell-based; conditions: time 24-72 hrs
MCF7 [5] = test: Antiproliferative activity against human MCF7 cells with shBP9 induced TASK-3 knockdown assessed as inhibition of cell proliferation at 0.148 uM incubated for 48 to 72 hrs by trypan blue exclusion method; assay type: functional, cell-based; conditions: time 48-72 hrs
MCF7 [6] = test: Antiproliferative activity against human MCF7 cells with wild type TASK-1 expressing GFP induced by shGFP assessed as inhibition of cell proliferation at 0.148 uM incubated for 24 to 72 hrs by trypan blue exclusion method; assay type: functional, cell-based; conditions: time 24-72 hrs
[7] = molecular target: T2, Potassium channel subfamily K member 9 (Homo sapiens, UniProt Q9NPC2); test: Inhibition of human TASK-3 expressed in Xenopus laevis oocytes assessed as inhibition of channel current at +40mV holding potential by two-electrode voltage clamp assay; assay type: cell-based, Oocyte
[8] = molecular target: T2, Potassium channel subfamily K member 9; test: Inhibition of human TASK-3 expressed in Xenopus laevis oocytes assessed as inhibition of channel current at 10 uM at +40mV holding potential by two-electrode voltage clamp assay; assay type: cell-based; conditions: Oocyte

T2 sequence (Q9NPC2 whole entry): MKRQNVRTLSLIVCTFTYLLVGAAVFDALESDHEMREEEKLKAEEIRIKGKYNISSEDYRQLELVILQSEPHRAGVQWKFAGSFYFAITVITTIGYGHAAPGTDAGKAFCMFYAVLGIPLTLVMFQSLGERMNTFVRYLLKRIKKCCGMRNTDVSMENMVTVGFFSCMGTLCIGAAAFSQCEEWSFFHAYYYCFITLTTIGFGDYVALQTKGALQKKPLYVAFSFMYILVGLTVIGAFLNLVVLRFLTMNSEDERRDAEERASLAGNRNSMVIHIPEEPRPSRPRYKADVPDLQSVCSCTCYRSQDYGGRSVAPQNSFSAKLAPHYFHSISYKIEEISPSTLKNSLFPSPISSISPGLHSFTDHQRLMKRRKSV

With `O=C(c1cccc(OC(F)(F)F)n1)N1CCN(Cc2c(-c3ccc(Cl)cc3)nc3ccccn23)CC1` as the molecule, how does the IC50 [1] read?
Its IC50 is 7600 nM.

How did the inhibition [2] turn out when `COc1ccc(NC(=O)c2cccc(NC(=O)c3ccccc3)c2)cc1` was run?
The inhibition was 10%.

`CCc1ccccc1NC(=O)c1cccc(NC(=O)c2ccccc2)c1` was tested. Which Activity (MCF7 [3]) did it give?
Its Activity is 45%.

What about the Activity (MCF7 [4]) of the same molecule?
The Activity was “Active”.

And the Activity (MCF7 [5])?
The Activity was “Active”.

And the Activity (MCF7 [6])?
The Activity was “Active”.

What about the IC50 [1] of the same molecule?
The IC50 was 148 nM.

And the IC50 [7]?
Its IC50 is 1750 nM.

What about the inhibition [8] of the same molecule?
Its inhibition is “Active”.

And the inhibition [2]?
The inhibition was “Active”.

How did the inhibition [2] turn out when `O=C(Nc1cccc(C(=O)Nc2ccc(F)cc2)c1)c1ccccc1` was run?
Its inhibition is 25%.

With `O=C(Nc1cccc(C(=O)Nc2ncccc2O)c1)c1ccccc1` as the molecule, how does the inhibition [8] read?
Its inhibition is “Active”.

What about the inhibition [2] of the same molecule?
Its inhibition is “Active”.

How did the IC50 [1] turn out when `CCCS(=O)(=O)Nc1ccccc1C(=O)N[C@H](CC)c1ccc(OC)nc1` was run?
Its IC50 is 200 nM.

With `O=C(c1ccccc1F)N1CCN(Cc2c(-c3ccc(Br)cc3)nc3ccccn23)CC1` as the molecule, how does the IC50 [1] read?
The IC50 was 9500 nM.

What does the source list for `O=C(NCc1ccccc1)c1cccc(NC(=O)c2ccccc2)c1`?
inhibition [8]: Active; inhibition [2]: Active

`O=C(Nc1cccc(C(=O)Nc2nccs2)c1)c1ccccc1` was tested. Which IC50 [1] did it give?
Its IC50 is 388 nM.

And the IC50 [7]?
The IC50 was 7170 nM.

What about the inhibition [8] of the same molecule?
Its inhibition is “Active”.

And the inhibition [2]?
The inhibition was “Active”.
